Earlier results as cited in article PMC4546577 (ACS chemical biology, 2015).

Details: sulphydryl group in MeaF; ref [69] PerrinDD, Dissociation constants of organic bases in aqueous solution, 1965

pKa (sulphydryl group): ~ 8.5
Structure (SMILES): N[C@@H](Cc1cccc(NCCS)c1)C(=O)O [MeaF, 3-(2-mercapto-ethyl)amino-phenylalanine]
